Source: the Kinase Knowledgebase extract (Sharma et al. 2016)

target: PIK3CA (human) (UniProt P42336); experiment: Assessment of PIK3CA Kinase Activity
Sequence (P42336 whole entry, looked up): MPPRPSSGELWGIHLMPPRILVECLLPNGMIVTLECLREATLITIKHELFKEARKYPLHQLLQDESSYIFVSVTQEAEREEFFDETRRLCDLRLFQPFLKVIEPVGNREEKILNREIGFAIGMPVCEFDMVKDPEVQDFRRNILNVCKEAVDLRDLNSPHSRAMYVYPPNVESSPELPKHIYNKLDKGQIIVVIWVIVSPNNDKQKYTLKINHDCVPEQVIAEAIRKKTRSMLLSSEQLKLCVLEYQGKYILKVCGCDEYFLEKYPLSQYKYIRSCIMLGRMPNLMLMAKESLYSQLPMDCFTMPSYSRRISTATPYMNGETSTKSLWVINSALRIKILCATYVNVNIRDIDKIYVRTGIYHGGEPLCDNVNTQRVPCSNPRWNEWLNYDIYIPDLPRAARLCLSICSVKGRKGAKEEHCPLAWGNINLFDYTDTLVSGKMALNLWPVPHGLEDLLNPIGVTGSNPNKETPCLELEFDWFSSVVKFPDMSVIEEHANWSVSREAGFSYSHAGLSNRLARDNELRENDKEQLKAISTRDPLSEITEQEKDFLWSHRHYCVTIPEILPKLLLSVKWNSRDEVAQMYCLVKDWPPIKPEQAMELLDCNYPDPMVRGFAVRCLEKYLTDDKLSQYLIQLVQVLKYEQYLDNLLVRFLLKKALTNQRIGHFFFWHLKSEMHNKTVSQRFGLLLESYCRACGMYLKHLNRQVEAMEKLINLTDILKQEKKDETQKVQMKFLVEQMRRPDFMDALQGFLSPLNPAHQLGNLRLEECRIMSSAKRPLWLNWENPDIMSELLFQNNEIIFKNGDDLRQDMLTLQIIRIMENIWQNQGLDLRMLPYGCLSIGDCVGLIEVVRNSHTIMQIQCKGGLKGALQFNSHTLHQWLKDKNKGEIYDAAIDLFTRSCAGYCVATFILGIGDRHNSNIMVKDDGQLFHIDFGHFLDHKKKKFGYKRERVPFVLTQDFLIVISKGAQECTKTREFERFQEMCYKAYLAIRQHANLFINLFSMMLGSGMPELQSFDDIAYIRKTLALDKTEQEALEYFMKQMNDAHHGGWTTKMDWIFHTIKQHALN

Compound	IC50 [nM]
Nc1nc2c(c(-c3cccnc3)n1)-c1cc(S(=O)(=O)N3CCOCC3)c(Cl)cc1CC2	20
Cc1ccc([N+](=O)[O-])cc1S(=O)(=O)Nc1cc2c(cc1Cl)CCc1nc(N)nc(-c3ccncc3)c1-2	202
CC(=O)Nc1ccc(-c2nc(N)nc3c2-c2cc(S(=O)(=O)N4CCOCC4)c(Cl)cc2CC3)cc1	3.2
Nc1nc2c(c(-c3ccncc3)n1)-c1cc(NS(=O)(=O)c3ccc4ccccc4c3)c(Cl)cc1CC2	405
Nc1nc2c(c(-c3ccncc3)n1)-c1cc(NS(=O)(=O)c3cccc(Cl)c3)c(Cl)cc1CC2	2.5
Nc1nc2c(c(-c3ccc(F)cc3)n1)-c1cc(S(=O)(=O)N3CCOCC3)c(Cl)cc1CC2	6.3
Nc1nc2c(c(=O)[nH]1)-c1ccc(Cl)cc1CC2	5010
Nc1nc2c(c(-c3ccc(F)cc3)n1)-c1cc(S(N)(=O)=O)c(Cl)cc1CC2	1.6
N#Cc1cccc(S(=O)(=O)Nc2cc3c(cc2Cl)CCc2nc(N)nc(-c4ccncc4)c2-3)c1	313
Cc1ccc(-c2nc(N)nc3c2-c2cc(S(=O)(=O)N4CCOCC4)c(Cl)cc2CC3)cc1	4
N#Cc1ccc(S(=O)(=O)Nc2cc3c(cc2Cl)CCc2nc(N)nc(-c4ccncc4)c2-3)cc1	1.6
Nc1cccc(-c2nc(N)nc3c2-c2cc(S(=O)(=O)N4CCOCC4)c(Cl)cc2CC3)c1	6.3
CNC(=O)c1ccc(-c2nc(N)nc3c2-c2cc(S(=O)(=O)N4CCOCC4)c(Cl)cc2CC3)cc1	7.9
Nc1nc2c(c(-c3ccccc3F)n1)-c1cc(S(=O)(=O)N3CCOCC3)c(Cl)cc1CC2	13
CC(C)S(=O)(=O)Nc1cc2c(cc1Cl)CCc1nc(N)nc(-c3ccc(F)cc3)c1-2	32
Nc1nc2c(c(-c3ccccc3)n1)-c1cc(S(=O)(=O)N3CCOCC3)c(Cl)cc1CC2	3.2
CC(=O)Nc1cccc(-c2nc(N)nc3c2-c2cc(S(=O)(=O)N4CCOCC4)c(Cl)cc2CC3)c1	25
Nc1nc2c(c(-c3ccncc3)n1)-c1cc(S(=O)(=O)N3CCOCC3)c(Cl)cc1CC2	10
Nc1nc2c(c(-c3ccncc3)n1)-c1cc(NS(=O)(=O)c3cccs3)c(Cl)cc1CC2	3.2

Results, then the molecule that gave them:

IC50 [nM]	Compound
1	Nc1nc2c(c(-c3ccncc3)n1)-c1cc(NS(=O)(=O)c3ccc(F)cc3F)c(Cl)cc1CC2
16	CC(=O)Nc1cccc(-c2nc(N)nc3c2-c2cc(NS(=O)(=O)c4ccc(F)cc4F)c(Cl)cc2CC3)c1
13	Nc1nc2c(c(-c3ccc(F)cc3)n1)-c1cc(NS(=O)(=O)c3ccccc3)c(Cl)cc1CC2
2	COc1ccc(-c2nc(N)nc3c2-c2cc(NS(=O)(=O)c4ccc(F)cc4F)c(Cl)cc2CC3)cc1
5	COc1cccc(-c2nc(N)nc3c2-c2cc(NS(=O)(=O)c4ccc(F)cc4F)c(Cl)cc2CC3)c1
4	Nc1nc2c(c(-c3ccccc3)n1)-c1cc(NS(=O)(=O)c3ccc(F)cc3F)c(Cl)cc1CC2
2.5	Nc1nc2c(c(-c3ccc(S(=O)(=O)N4CCOCC4)cc3)n1)-c1cc(NS(=O)(=O)c3ccc(F)cc3F)c(Cl)cc1CC2
6.3	Cn1cc(-c2nc(N)nc3c2-c2cc(NS(=O)(=O)c4ccc(F)cc4F)c(Cl)cc2CC3)cn1
1.6	CNC(=O)c1ccc(-c2nc(N)nc3c2-c2cc(NS(=O)(=O)c4ccc(F)cc4F)c(Cl)cc2CC3)cc1
13	Nc1nc2c(c(-c3ccccc3)n1)-c1cc(NS(=O)(=O)c3ccccc3)c(Cl)cc1CC2
3.2	CN(C)S(=O)(=O)c1cccc(-c2nc(N)nc3c2-c2cc(NS(=O)(=O)c4ccc(F)cc4F)c(Cl)cc2CC3)c1
2.5	CN(C)S(=O)(=O)c1ccc(-c2nc(N)nc3c2-c2cc(NS(=O)(=O)c4ccc(F)cc4F)c(Cl)cc2CC3)cc1
7.9	Nc1nc2c(c(-c3cccc(S(=O)(=O)N4CCOCC4)c3)n1)-c1cc(NS(=O)(=O)c3ccc(F)cc3F)c(Cl)cc1CC2
1580	Nc1nc2c(c(-c3ccccc3)n1)-c1cc(NC(=O)c3ccc(F)cc3F)c(Cl)cc1CC2
1.3	CS(=O)(=O)c1cccc(-c2nc(N)nc3c2-c2cc(NS(=O)(=O)c4ccc(F)cc4F)c(Cl)cc2CC3)c1
4	NC(=O)c1ccc(-c2nc(N)nc3c2-c2cc(NS(=O)(=O)c4ccc(F)cc4F)c(Cl)cc2CC3)cc1
2	NC(=O)c1cccc(-c2nc(N)nc3c2-c2cc(NS(=O)(=O)c4ccc(F)cc4F)c(Cl)cc2CC3)c1
16	Nc1nc2c(c(-c3ccccc3)n1)-c1cc(NS(=O)(=O)c3ccoc3)c(Cl)cc1CC2
2.5	CS(=O)(=O)c1ccc(-c2nc(N)nc3c2-c2cc(NS(=O)(=O)c4ccc(F)cc4F)c(Cl)cc2CC3)cc1
2.5	Nc1nc2c(c(-c3ccc(F)cc3)n1)-c1cc(NS(=O)(=O)c3ccc(F)cc3F)c(Cl)cc1CC2
25	CC(C)S(=O)(=O)Nc1cc2c(cc1Cl)CCc1nc(N)nc(-c3ccccc3)c1-2
5	Cn1cc(-c2nc(N)nc3c2-c2cc(NS(=O)(=O)c4ccccc4)c(Cl)cc2CC3)cn1
20	Nc1nc2c(c(-c3cccnc3)n1)-c1cc(NS(=O)(=O)c3ccc(F)cc3F)c(Cl)cc1CC2
2.5	CC(=O)Nc1ccc(-c2nc(N)nc3c2-c2cc(NS(=O)(=O)c4ccc(F)cc4F)c(Cl)cc2CC3)cc1
4	CNC(=O)c1cccc(-c2nc(N)nc3c2-c2cc(NS(=O)(=O)c4ccc(F)cc4F)c(Cl)cc2CC3)c1
4	Nc1nc2c(c(-c3cccc(F)c3)n1)-c1cc(NS(=O)(=O)c3ccc(F)cc3F)c(Cl)cc1CC2
6.3	Nc1nc2c(c(-c3ccncc3)n1)-c1cc(NS(=O)(=O)c3ccccc3)c(Cl)cc1CC2
